Measurements reported in ChEMBL document CHEMBL3885861, “Open TG-GATES”.
*1 amine or outer side, *2 acyl side, *3 side chain or, on linkers, in order; H or OH if unused. Where a SMILES comes first, the peptide text is derived from it. Bridges are numbered along the chain shown (N, C = ends). [ ]: non-standard residue; d: D form. Trp(2-yl) = O=C([C@H](Cc1c([*:3])[nH]c2ccccc12)N[*:1])[*:2]; Leu(4R-OH,5-OH) = C[C@](O)(CO)C[C@H](N)C(=O)O; cisHyp = O=C(O)[C@@H]1C[C@H](O)CN1

Species on record: Rattus norvegicus
Assay: Open TG-GATES - Regimen: Daily Repeat
Assay type: toxicity, organism-based, Sprague-Dawley
Design: regimen Daily Repeat, gender Male, age 6 weeks
Conditions: in vivo, ip, route intraperitoneal injection; for APTT / Bas / Eos / Fbg / Hb / Ht / Lym / MCH / MCHC / MCV / Mono / Neu / PT / Plat / RBC / Ret / WBC: tissue Blood; for KIDNEY_L / KIDNEY_R / KIDNEY_TOTAL: tissue Kidney; for LIVER: tissue Liver; for A/G / ALP / ALT / AST / BUN / CRE / Ca / Cl / DBIL / GLC / IP / K / LDH / Na / PL / RALB / TBIL / TC / TG / TP / gamma-GTP: tissue Plasma
[1] = 0 mg/kg, 72 h, dose level Control, time 3 day
[2] = 0 mg/kg, […], dose level Control, time 7 day
[3] = 1 mg/kg, 72 h, dose level High, time 3 day
[4] = 1 mg/kg, […], dose level High, time 7 day

C[C@@H]1NC(=O)[C@H](C[C@@](C)(O)CO)NC(=O)[C@@H]2Cc3c([nH]c4ccccc34)SC[C@H](NC(=O)[C@@H]([C@H](C)O)NC1=O)C(=O)N1C[C@@H](O)C[C@H]1C(=O)N[C@@H](C)C(=O)N2 [PHALLOIDIN] (cyclo(A[dT]C[cisHyp]A[Trp(2-yl)][Leu(4R-OH,5-OH)]); thioether 3-6)
TERMINAL_BW [1]: 224.8 g | APTT [1]: 23.1 s | Bas [1]: 0% | Eos [1]: 1% | Fbg [1]: 328 mg/dL | Hb [1]: 13 g/dL | Ht [1]: 40.4% | Lym [1]: 83% | MCH [1]: 20.5 pg | MCHC [1]: 32.2% | MCV [1]: 63.5 fL | Mono [1]: 2.8% | Neu [1]: 12.6% | PT [1]: 16.3 s | Plat [1]: 118.5 x10_4/uL | RBC [1]: 636.6 x10_4/ul | Ret [1]: 6.8% | WBC [1]: 113.9 x10_2/uL | KIDNEY_L [1]: 1 g | KIDNEY_R [1]: 1 g | KIDNEY_TOTAL [1]: 1.9 g | LIVER [1]: 10.4 g | A/G [1]: 1.3 | ALP [1]: 1525.8 IU/L | ALT [1]: 42 IU/L | AST [1]: 66.8 IU/L | BUN [1]: 17.4 mg/dL | CRE [1]: 0.2 mg/dL | Ca [1]: 10.8 mg/dL | Cl [1]: 105.4 meq/L | DBIL [1]: 0 mg/dL | GLC [1]: 201.4 mg/dL | IP [1]: 8.4 mg/dL | K [1]: 4.7 meq/L | LDH [1]: 177.6 IU/L | Na [1]: 140.8 meq/L | PL [1]: 139.6 mg/dL | RALB [1]: 3.1 g/dL | TBIL [1]: 0 mg/dL | TC [1]: 78 mg/dL | TG [1]: 116.4 mg/dL | TP [1]: 5.5 g/dL | gamma-GTP [1]: 1.6 IU/L | TERMINAL_BW [2]: 261.3 g | APTT [2]: 23.5 s | Bas [2]: 0% | Eos [2]: 1% | Fbg [2]: 322.2 mg/dL | Hb [2]: 12.9 g/dL | Ht [2]: 39.5% | Lym [2]: 80% | MCH [2]: 20.4 pg | MCHC [2]: 32.6% | MCV [2]: 62.5 fL | Mono [2]: 1.8% | Neu [2]: 16.2% | PT [2]: 15.6 s | Plat [2]: 135.8 x10_4/uL | RBC [2]: 632.2 x10_4/ul | Ret [2]: 6.8% | WBC [2]: 114.9 x10_2/uL | KIDNEY_L [2]: 1.1 g | KIDNEY_R [2]: 1.2 g | KIDNEY_TOTAL [2]: 2.3 g | LIVER [2]: 11.8 g | A/G [2]: 1.2 | ALP [2]: 1235.4 IU/L | ALT [2]: 36.6 IU/L | AST [2]: 63.4 IU/L | BUN [2]: 18 mg/dL | CRE [2]: 0.2 mg/dL | Ca [2]: 10.4 mg/dL | Cl [2]: 105.8 meq/L | DBIL [2]: 0 mg/dL | GLC [2]: 189.8 mg/dL | IP [2]: 8.2 mg/dL | K [2]: 4.4 meq/L | LDH [2]: 160.4 IU/L | Na [2]: 142.6 meq/L | PL [2]: 130.8 mg/dL | RALB [2]: 2.9 g/dL | TBIL [2]: 0.008 mg/dL | TC [2]: 75 mg/dL | TG [2]: 88.6 mg/dL | TP [2]: 5.4 g/dL | gamma-GTP [2]: 2.8 IU/L | TERMINAL_BW [3]: 218.4 g | APTT [3]: 19.4 s | Bas [3]: 0% | Eos [3]: 1.2% | Fbg [3]: 270.8 mg/dL | Hb [3]: 13.5 g/dL | Ht [3]: 42.3% | Lym [3]: 78.2% | MCH [3]: 20.3 pg | MCHC [3]: 32% | MCV [3]: 63.4 fL | Mono [3]: 3.2% | Neu [3]: 16.8% | PT [3]: 15.5 s | Plat [3]: 119.3 x10_4/uL | RBC [3]: 667.2 x10_4/ul | Ret [3]: 6.7% | WBC [3]: 88.5 x10_2/uL | KIDNEY_L [3]: 1.1 g | KIDNEY_R [3]: 1.1 g | KIDNEY_TOTAL [3]: 2.1 g | LIVER [3]: 12 g | A/G [3]: 1.1 | ALP [3]: 2057 IU/L | ALT [3]: 49 IU/L | AST [3]: 85.6 IU/L | BUN [3]: 13.2 mg/dL | CRE [3]: 0.1 mg/dL | Ca [3]: 11.1 mg/dL | Cl [3]: 105.4 meq/L | DBIL [3]: 0.066 mg/dL | GLC [3]: 168.8 mg/dL | IP [3]: 8.3 mg/dL | K [3]: 5.2 meq/L | LDH [3]: 169.2 IU/L | Na [3]: 140.4 meq/L | PL [3]: 153.6 mg/dL | RALB [3]: 3 g/dL | TBIL [3]: 0.084 mg/dL | TC [3]: 107.4 mg/dL | TG [3]: 24.2 mg/dL | TP [3]: 5.8 g/dL | gamma-GTP [3]: 1.6 IU/L | TERMINAL_BW [4]: 244 g | APTT [4]: 17.6 s | Bas [4]: 0% | Eos [4]: 1.2% | Fbg [4]: 254.4 mg/dL | Hb [4]: 13.7 g/dL | Ht [4]: 41.8% | Lym [4]: 79.6% | MCH [4]: 19.6 pg | MCHC [4]: 32.9% | MCV [4]: 59.6 fL | Mono [4]: 3% | Neu [4]: 15.8% | PT [4]: 14.8 s | Plat [4]: 150.8 x10_4/uL | RBC [4]: 702.8 x10_4/ul | Ret [4]: 4.1% | WBC [4]: 147.5 x10_2/uL | KIDNEY_L [4]: 1.1 g | KIDNEY_R [4]: 1.1 g | KIDNEY_TOTAL [4]: 2.2 g | LIVER [4]: 13.9 g | A/G [4]: 0.8 | ALP [4]: 2253.4 IU/L | ALT [4]: 86.2 IU/L | AST [4]: 202.2 IU/L | BUN [4]: 15 mg/dL | CRE [4]: 0.1 mg/dL | Ca [4]: 10.7 mg/dL | Cl [4]: 104.6 meq/L | DBIL [4]: 0.3 mg/dL | GLC [4]: 177.8 mg/dL | IP [4]: 7.3 mg/dL | K [4]: 4.8 meq/L | LDH [4]: 258.2 IU/L | Na [4]: 141 meq/L | PL [4]: 168 mg/dL | RALB [4]: 2.6 g/dL | TBIL [4]: 0.4 mg/dL | TC [4]: 115.6 mg/dL | TG [4]: 28.6 mg/dL | TP [4]: 5.8 g/dL | gamma-GTP [4]: 3.2 IU/L
